Source: PMC8213057, “Targeting ALK2: An Open Science Approach to Developing Therapeutics for the Treatment of Diffuse Intrinsic Pontine Glioma” (Journal of Medicinal Chemistry, 2020)
Several values for one entry are separate records, joined by “and”; a condition that tells them apart may be missing. Identical values can stand only once.

Experiments:
[1] = test system: BRAF
[2] = target: CDK14/cyclin Y (PFTK1) (Homo sapiens, UniProt O94921); details: 1 μM; Run 1, Run 2
[3] = target: CLK2 (Homo sapiens, UniProt P49760); details: 1 μM; Run 1, Run 2
CLK2, sequence (P49760 whole entry): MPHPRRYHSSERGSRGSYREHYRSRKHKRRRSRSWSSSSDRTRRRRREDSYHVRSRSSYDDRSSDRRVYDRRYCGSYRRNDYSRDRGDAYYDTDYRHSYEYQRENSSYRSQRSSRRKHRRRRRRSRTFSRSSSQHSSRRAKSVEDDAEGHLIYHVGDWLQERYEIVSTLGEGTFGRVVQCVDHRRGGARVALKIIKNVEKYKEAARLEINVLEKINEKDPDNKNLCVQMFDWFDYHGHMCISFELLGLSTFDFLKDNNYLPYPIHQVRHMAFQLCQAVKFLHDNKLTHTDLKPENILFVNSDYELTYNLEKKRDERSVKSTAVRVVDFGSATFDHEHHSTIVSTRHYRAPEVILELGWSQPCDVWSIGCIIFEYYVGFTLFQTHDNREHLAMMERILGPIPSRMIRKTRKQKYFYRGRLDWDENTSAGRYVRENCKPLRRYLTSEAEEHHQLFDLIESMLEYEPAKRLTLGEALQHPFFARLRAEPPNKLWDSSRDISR

[4] = target: JNK1 (Homo sapiens, UniProt P45983); details: 1 μM; Run 1, Run 2
JNK1, sequence (P45983 whole entry): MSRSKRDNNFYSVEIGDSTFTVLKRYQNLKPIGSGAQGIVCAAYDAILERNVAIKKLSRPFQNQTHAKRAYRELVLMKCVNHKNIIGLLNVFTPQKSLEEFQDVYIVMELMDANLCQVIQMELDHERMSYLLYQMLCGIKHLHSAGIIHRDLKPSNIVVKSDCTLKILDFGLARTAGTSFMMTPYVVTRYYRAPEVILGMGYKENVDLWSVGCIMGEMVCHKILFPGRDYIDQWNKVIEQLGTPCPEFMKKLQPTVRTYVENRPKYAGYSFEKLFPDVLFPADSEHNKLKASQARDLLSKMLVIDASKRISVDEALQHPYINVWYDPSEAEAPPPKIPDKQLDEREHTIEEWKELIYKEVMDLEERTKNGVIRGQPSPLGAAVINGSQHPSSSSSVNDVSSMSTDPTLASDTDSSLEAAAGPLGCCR

[5] = target: T1, RIPK4 (Homo sapiens, UniProt P57078); details: 1 μM; Run 1, Run 2
T1 sequence (P57078 1-832): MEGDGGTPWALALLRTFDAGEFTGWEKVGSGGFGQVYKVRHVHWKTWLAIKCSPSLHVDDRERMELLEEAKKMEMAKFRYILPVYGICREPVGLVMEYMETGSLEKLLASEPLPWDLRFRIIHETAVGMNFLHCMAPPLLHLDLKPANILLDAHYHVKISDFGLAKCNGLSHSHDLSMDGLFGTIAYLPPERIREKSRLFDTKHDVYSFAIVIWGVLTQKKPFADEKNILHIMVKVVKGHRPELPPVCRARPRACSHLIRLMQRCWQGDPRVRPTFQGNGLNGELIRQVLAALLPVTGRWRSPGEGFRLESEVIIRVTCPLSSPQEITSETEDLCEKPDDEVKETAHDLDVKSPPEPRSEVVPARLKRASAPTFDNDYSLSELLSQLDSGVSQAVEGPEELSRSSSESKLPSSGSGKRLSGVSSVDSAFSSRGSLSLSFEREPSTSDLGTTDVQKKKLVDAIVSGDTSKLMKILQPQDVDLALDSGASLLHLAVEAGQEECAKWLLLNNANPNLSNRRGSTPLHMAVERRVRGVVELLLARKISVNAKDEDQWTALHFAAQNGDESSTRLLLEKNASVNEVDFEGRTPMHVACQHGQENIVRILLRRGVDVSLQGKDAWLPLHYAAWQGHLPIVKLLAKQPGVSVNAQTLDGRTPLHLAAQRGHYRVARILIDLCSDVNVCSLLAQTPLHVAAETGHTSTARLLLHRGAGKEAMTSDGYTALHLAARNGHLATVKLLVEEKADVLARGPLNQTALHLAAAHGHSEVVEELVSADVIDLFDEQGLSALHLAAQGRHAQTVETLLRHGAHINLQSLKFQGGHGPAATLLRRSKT

[6] = target: WNK1 (Homo sapiens, UniProt Q9H4A3); details: 1 μM; Run 1, Run 2
[7] = target: AKT1 (Homo sapiens, UniProt P31749); experiment: biochemical; details: read-out: % enzyme activity, 1 μM; Run 1, Run 2
AKT1, sequence (P31749 whole entry): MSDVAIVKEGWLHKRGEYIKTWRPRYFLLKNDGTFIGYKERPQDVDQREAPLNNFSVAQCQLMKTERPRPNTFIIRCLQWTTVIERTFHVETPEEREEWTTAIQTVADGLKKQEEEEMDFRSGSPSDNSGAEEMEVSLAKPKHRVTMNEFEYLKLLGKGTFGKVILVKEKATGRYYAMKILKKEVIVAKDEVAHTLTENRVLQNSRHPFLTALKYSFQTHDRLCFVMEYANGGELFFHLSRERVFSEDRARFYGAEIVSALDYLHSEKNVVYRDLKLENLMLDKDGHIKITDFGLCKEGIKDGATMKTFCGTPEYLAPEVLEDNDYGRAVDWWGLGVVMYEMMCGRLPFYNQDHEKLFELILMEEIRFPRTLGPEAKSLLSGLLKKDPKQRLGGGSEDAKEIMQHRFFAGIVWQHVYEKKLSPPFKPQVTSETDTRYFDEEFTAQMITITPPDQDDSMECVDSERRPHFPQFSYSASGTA

[8] = target: AKT3 (Homo sapiens, UniProt Q9Y243); experiment: biochemical; details: read-out: % enzyme activity, 1 μM; Run 1, Run 2
AKT3, sequence (Q9Y243 whole entry): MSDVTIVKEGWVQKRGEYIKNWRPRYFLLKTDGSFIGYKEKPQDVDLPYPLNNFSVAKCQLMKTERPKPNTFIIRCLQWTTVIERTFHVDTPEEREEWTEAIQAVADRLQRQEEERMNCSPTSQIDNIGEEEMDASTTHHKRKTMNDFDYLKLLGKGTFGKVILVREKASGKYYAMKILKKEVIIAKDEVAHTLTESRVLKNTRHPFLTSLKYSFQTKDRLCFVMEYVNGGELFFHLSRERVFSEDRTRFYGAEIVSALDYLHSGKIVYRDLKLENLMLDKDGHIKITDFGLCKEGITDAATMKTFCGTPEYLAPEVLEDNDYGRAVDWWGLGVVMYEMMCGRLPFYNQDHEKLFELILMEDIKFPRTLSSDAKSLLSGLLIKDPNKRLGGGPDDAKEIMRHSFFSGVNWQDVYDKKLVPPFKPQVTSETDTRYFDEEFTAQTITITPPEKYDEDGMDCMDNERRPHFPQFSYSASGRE

[9] = target: T2, Aurora C (Homo sapiens, UniProt Q9UQB9); experiment: biochemical; details: read-out: % enzyme activity, 1 μM; Run 1, Run 2
T2 sequence (Q9UQB9 1-309): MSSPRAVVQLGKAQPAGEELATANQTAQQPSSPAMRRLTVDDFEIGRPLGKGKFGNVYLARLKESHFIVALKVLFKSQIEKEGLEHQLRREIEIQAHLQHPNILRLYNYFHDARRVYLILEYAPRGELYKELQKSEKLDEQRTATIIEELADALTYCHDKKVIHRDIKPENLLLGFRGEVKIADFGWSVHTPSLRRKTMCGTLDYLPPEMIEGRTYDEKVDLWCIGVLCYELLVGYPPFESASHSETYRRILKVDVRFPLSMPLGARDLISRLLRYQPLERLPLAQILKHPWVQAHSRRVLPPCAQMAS

[10] = target: T3, DYRK2 (Homo sapiens, UniProt Q92630); experiment: biochemical; details: read-out: % enzyme activity, 1 μM; Run 1, Run 2
T3 sequence (Q92630 1-601): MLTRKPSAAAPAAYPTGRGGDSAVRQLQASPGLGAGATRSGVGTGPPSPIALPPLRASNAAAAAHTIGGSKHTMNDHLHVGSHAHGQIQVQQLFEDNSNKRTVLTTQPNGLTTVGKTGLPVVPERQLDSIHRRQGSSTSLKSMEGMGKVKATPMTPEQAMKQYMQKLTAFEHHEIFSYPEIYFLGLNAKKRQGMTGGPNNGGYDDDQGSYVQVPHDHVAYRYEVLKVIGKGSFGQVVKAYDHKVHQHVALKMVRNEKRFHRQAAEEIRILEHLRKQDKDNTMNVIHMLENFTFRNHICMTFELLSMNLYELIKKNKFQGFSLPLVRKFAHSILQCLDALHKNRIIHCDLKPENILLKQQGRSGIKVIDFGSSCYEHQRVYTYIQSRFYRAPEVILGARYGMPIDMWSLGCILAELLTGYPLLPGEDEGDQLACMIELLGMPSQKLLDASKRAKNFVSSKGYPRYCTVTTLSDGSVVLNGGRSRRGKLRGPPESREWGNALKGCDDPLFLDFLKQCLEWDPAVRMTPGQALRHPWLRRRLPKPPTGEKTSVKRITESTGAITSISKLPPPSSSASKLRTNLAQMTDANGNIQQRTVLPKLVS

[11] = target: T4, PKG1b (Homo sapiens, UniProt Q13976); experiment: biochemical; details: read-out: % enzyme activity, 1 μM; Run 1, Run 2
T4 sequence (Q13976 1-686 isoform Q13976-2): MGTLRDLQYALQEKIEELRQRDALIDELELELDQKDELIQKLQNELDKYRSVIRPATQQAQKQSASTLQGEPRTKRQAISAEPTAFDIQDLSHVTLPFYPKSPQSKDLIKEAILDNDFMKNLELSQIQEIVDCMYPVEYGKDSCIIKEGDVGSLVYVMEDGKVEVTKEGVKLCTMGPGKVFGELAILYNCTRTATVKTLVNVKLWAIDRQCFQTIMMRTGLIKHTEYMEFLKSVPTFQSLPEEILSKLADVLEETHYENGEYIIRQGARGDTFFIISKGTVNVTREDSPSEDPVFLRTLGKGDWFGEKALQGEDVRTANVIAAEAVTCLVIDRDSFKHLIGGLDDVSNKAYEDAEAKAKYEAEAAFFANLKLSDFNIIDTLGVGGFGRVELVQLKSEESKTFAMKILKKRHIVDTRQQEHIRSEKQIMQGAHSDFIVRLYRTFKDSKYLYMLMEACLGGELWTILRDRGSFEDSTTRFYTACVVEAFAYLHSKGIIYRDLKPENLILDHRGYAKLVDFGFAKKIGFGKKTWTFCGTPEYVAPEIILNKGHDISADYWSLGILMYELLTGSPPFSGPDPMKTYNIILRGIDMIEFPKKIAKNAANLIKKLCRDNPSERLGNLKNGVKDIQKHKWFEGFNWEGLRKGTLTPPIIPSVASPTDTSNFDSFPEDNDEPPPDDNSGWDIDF

[12] = target: YES/YES1 (Homo sapiens, UniProt P07947); experiment: biochemical; details: read-out: % enzyme activity, 1 μM; Run 1, Run 2
YES/YES1, sequence (P07947 whole entry): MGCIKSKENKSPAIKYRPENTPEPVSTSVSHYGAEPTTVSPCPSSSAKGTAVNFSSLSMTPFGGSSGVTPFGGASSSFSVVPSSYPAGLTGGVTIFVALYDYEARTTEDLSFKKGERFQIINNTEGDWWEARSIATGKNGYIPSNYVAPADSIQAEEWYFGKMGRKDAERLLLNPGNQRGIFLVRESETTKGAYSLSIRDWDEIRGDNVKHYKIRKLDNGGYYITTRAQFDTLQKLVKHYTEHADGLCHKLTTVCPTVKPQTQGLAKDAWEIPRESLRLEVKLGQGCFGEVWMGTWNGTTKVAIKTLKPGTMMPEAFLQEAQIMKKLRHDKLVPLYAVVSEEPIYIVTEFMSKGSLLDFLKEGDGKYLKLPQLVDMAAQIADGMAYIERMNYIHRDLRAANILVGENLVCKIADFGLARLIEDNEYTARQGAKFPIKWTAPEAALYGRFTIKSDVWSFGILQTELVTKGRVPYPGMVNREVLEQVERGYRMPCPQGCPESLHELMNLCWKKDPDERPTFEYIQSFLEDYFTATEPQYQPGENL

CDK14/cyclin Y (PFTK1), sequence (O94921 whole entry): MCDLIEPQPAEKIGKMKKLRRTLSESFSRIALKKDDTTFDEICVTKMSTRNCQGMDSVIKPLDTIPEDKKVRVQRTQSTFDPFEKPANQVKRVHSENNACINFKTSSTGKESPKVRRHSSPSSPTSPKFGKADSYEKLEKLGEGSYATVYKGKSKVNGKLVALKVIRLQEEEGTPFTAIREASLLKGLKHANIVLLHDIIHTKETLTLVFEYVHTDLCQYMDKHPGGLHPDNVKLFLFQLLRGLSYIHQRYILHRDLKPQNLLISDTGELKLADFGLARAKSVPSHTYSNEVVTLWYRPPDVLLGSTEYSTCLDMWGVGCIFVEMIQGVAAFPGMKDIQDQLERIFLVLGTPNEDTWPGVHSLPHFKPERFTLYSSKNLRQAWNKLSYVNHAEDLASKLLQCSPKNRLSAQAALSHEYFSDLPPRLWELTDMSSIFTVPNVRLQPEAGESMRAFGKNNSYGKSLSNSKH
CDK14/cyclin Y (PFTK1), sequence (Q8ND76 whole entry partner): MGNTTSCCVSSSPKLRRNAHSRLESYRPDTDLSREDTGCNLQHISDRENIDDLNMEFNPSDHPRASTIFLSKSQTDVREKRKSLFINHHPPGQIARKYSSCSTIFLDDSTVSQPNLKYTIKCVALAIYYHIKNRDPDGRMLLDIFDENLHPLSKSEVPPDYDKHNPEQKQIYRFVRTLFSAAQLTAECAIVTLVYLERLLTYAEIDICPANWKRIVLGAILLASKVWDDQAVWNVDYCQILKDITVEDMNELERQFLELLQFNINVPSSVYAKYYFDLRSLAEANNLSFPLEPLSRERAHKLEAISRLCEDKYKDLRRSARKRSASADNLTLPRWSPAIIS

`COc1cc(-c2cncc(-c3ccc(N4CCN(C)CC4)cc3)c2C)cc(F)c1C(N)=O` [Compound 26a, 2-Fluoro-6-methoxy-4-(4-methyl-5-(4-(4-methylpiperazin-1-yl)phenyl)pyridin-3-yl)benzamide] was tested, and the % enzyme activity at 1 μM [1] was 28.8%, the “% enzyme activity” value [2] was 98.24% and the “% enzyme activity” value [3] was 91.71%. The “% enzyme activity” value [4] was 88.65%, the “% enzyme activity” value [5] was 70.28% and the “% enzyme activity” value [6] was 107.33%. The remaining activity at 1 µM [7] was 106%, the remaining activity at 1 µM [8] was 95% and the remaining activity at 1 µM [9] was 105%. For the same molecule, the remaining activity at 1 µM [10] was 96.3%, the remaining activity at 1 µM [11] was 102% and the remaining activity at 1 µM [12] was 105%.

For `COc1cc(-c2cncc(-c3ccc(N4C[C@@H](C)N(C)[C@@H](C)C4)cc3)c2C)cc(F)c1C(N)=O` [Compound 26c, 2-Fluoro-6-methoxy-4-(4-methyl-5-(4-((3R,5S)-3,4,5-trimethylpiperazin-1-yl)phenyl)pyridin-3-yl)benzamide], the % enzyme activity at 1 μM [1] was 41.1% and 40.5%, the “% enzyme activity” value [2] was 99.61% and the “% enzyme activity” value [3] was 85.73%. The “% enzyme activity” value [4] was 85.74%, the “% enzyme activity” value [5] was 82.04% and the “% enzyme activity” value [6] was 102.29%. It also gave a remaining activity at 1 µM [7] of 105%, a remaining activity at 1 µM [8] of 98.7% and a remaining activity at 1 µM [9] of 100%. It also gave a remaining activity at 1 µM [10] of 100%, a remaining activity at 1 µM [11] of 98.8% and a remaining activity at 1 µM [12] of 109%.
